# Source: publication PMC11345766, “Computational Design of Pore-Forming Peptides with Potent Antimicrobial and Anticancer Activities” (Journal of Medicinal Chemistry, 2024)
# Like-named read-outs stand apart in the source and are kept apart here. Ends that are not written are not given here.
# Tests used:
# [1] = Calcein dye leakage assay from LUVs; assay type: biochemical; conditions: P:L 1:100; pH 7.4
# Description: To verify the pore-forming mechanism of action of the designed AMPs, we performed a calcein leakage assay. […] These lipid vesicles were used as simple mimics of bacterial membranes.[58] At the lowest tested peptide-to-lipid (P:L) ratio of 1:100 (mol/mol), three mutants (LP18, LP26, and LP40) caused >90% leakage, which was higher than the leakage caused by LP1 (87%). […] At the same concentration, LP23 caused leakage equivalent to that caused by LP1. Other mutants had lower leakage activity. At a higher P:L ratio of 1:50, all the abovementioned mutants caused 100% leakage, equivalent to that caused by LP1.
# Pore-forming activity was tested using a dye leakage assay measuring the leakage of self-quenching fluorescent dye calcein from POPC:POPG (1:1 mol/mol) LUVs. DiD was mixed with lipids (1:500 mol/mol), and lipid film was created by evaporating chloroform, followed by 4 h of desiccation. Dried lipid film was dissolved in calcein buffer (35 mM calcein, 25 mM NaH2PO4·H2O and Na2HPO4·7H2O (3:7 mol/mol), 20 mM NaCl, and 1 mM EDTA). After 10 freeze–thaw cycles, the sample was extruded 50 times through a 100 nm pore size polycarbonate membrane filter. Free calcein in solution was removed using a HiTrap Desalting column. The concentrations of LUVs and peptides were adjusted to 0.02 and 0.1 mM, respectively, in PBS (25 mM NaH2PO4·H2O and Na2HPO4·7H2O (3:7 mol/mol), 100 mM NaCl, and 1 mM EDTA). The investigated P/L ratio was from 1:100 to 1:10 (mol/mol). Fluorescence intensity was measured using a HORIBA Scientific Jobin Yvon FluoroLog-3 Modular Spectrofluorometer (USA). Excitation and emission wavelengths were set to 495 and 520 nm, respectively. Triton X-100 10% caused 100% leakage used for normalization.
# E. coli (TOP10) = experiment: Broth microdilution antimicrobial susceptibility assay; assay type: cell-based, Escherichia coli; conditions: TOP10, 24 h
# Description: (§1) To test antimicrobial activity, all peptides were initially screened, in a broth microdilution assay, against Gram-negative Escherichia coli (TOP10) and Gram-positive Staphylococcus carnosus (CCM 4838T) Biosafety Level 1 (BSL-1) bacteria (Table 2). […] Four other mutants (LP3, LP26, LP36, and LP39) had higher activity than LP1 against E. coli, and two mutants (LP23 and LP32) had higher activity than LP1 against S. carnosus. Six mutants (LP29, LP30, LP31, LP33, LP40, and LP43) were not active against one or both bacteria, even at the highest concentration tested (50 μM).
# (§2) Antimicrobial activity against E. coli TOP10 and S. carnosus CCM 4838T was tested using the broth microdilution assay. Bacteria were cultured in MHA Petri dish for 24 h, subcultured in an MHB test tube for 6 h at 37 °C, and diluted to 10^6 CFU/mL (OD600). […] Dilution series was prepared for concentrations 50 to 0.1 μM in a flat-bottom 96-well plate, inoculated with bacteria, and incubated for 24 h at 37 °C. Growth control wells were free from test compounds, and sterility control wells were free from bacteria. Bacterial MIC was determined as the lowest concentration of test compounds that inhibited visible growth of bacteria (i.e., no visible turbidity).
# S. carnosus (CCM 4838T) = experiment: microbe, parasite or virus in culture; assay type: cell-based, Staphylococcus carnosus; conditions: CCM 4838, 24 h; read-out: Antimicrobial activity (MIC) S. carnosus (CCM 4838T)
# Description: as §1, §2
# [2] = system: murine macrophages RAW 264.7; conditions: 24 h
# Method: (§3) Cytotoxicity against human immortalized keratinocytes HaCaT, human alveolar basal epithelial A549 (derived from adenocarcinoma), and murine macrophages RAW 264.7 was tested using MTT [3-(4,5-dimethylthiazol-2-yl)-2,5-diphenyltetrazolium bromide] assay. Cells were cultured in Dulbecco’s modified Eagle’s medium (DMEM) containing 4 mM glutamine for HaCaT, or 2 mM glutamine for A549 and RAW 264.7 cells, supplemented with 10% heat-inactivated fetal bovine serum (FBS) and antibiotics (0.1 mg/mL penicillin and streptomycin). Nonessential amino acids (NEAA) and sodium pyruvate (1 mM) were added for macrophages. Cell lines were grown in 25 and 75 cm^2 flasks at 37 °C in a humidified atmosphere with 5% CO2. Cells were suspended in DMEM, containing glutamine, NEAA, and sodium pyruvate (as described above), supplemented with 2% FBS, plated in 96-well plates at 4 × 10^4 cells/well, and incubated at 37 °C in a 5% CO2 atmosphere. After overnight incubation, the medium was replaced with fresh DMEM supplemented with peptides at different concentrations: 2, 4, 8, 16, 32, 64, and 128 μM. Negative controls were cells without peptides. After 24 h of peptide treatment at 37 °C in a 5% CO2 atmosphere, medium was replaced with Hank’s buffer (136 mM NaCl, 0.34 mM Na2HPO4, 0.44 mM KH2PO4, 5.4 mM KCl, 4.1 mM NaHCO3, supplemented with 5.5 mM D-glucose) containing 0.5 mg/mL MTT. Mitochondrial dehydrogenases converted soluble yellow dye MTT to insoluble purple formazan. After 4 h of incubation, acidified isopropanol was added to dissolve formazan crystals and measured for OD570 using Tecan microplate reader Infinite M200 (Salzburg, Austria).
# E. coli (E1098) = conditions: E1098, 18 h
# [3] = system: human red blood cells (HRBCs); conditions: read-out: Hemolysis toxicity (IC50); 1 h incubation
# Method: To investigate the toxicity for normal human cells, all peptides were first screened against human red blood cells (HRBCs) using a hemolysis assay (Table 2 and Figure S4).
# Hemolysis toxicity was tested against HRBCs. Blood samples, collected from the university hospital, were centrifuged twice at 700 × g and once at 1000 × g for 8 min at 4 °C to obtain erythrocyte pellets. Supernatants were always discarded, and pellets were resuspended in PBS (the same as the antimicrobial susceptibility assay). The final RBC suspension was 0.5% (v/v). Dilution series was prepared for concentrations 50 to 0.1 μM in a V-bottom 96-well plate, followed by the addition of RBC suspension. […] After 1 h of incubation at 37 °C, the well plate was centrifuged at 1000 × g for 10 min at 4 °C. The supernatant, collected in a flat-bottom well plate, was measured for OD415 using Tecan Microplate Reader Infinite F500.
# [4] = Method: as §3
# [5] = remark: listed apart in the source
# Method: as §3, with “After 24 h of peptide treatment at 37 °C in a 5% CO2 atmosphere, medium was replaced with Hank’s buffer (136 mM NaCl, 0.34 mM Na2HPO4, 0.44 mM KH2PO4, 5.4 mM KCl, 4.1 mM NaHCO3, supplemented with 5.5 mM D-glucose) containing 0.5 mg/mL MTT. Mitochondrial dehydrogenases converted soluble yellow dye MTT to insoluble purple formazan.” left out
# [6] = remark: listed apart in the source
# Method: as §3
# [7] = system: MOLM-13, MEC-1 and SU-DHL-4 cancer cell lines; conditions: read-out: IC50 values over three cancer cell lines; after 24 h of incubation; physiological pH
# Method: Anticancer activity of peptides against acute myeloid leukemia MOLM-13, chronic lymphocytic leukemia MEC-1, and diffuse large B-cell lymphoma SU-DHL-4 cell lines was tested using a WST cell viability assay. Cells were cultured in 75 cm^2 culture flasks at 37 °C in 5% CO2 according to the DSMZ recommendations before the start of the experiment. Then, the cells were seeded into 96-well plates in quadruplicate at 2.5 × 10^4 cells/well for SU-DHL-4, and 5 × 10^4 cells/well for MEC-1 and MOLM-13. Cells were treated with either peptides or PBS alone (negative control) for 24–72 h at 37 °C in 5% CO2. After incubation, cell viability was measured by WST-1 (Roche) according to the manufacturer’s instructions using Tecan microplate reader Infinite M200 PRO Plex and expressed as percentage compared to control.
# [8] = system: HL-60, K-562, MCF-7 and HCT-116 cells; experiment: Viability by flow cytometry DiOC6/7AAD staining, effect of pH and media; assay type: cell-based, human; conditions: 10 μM, 1 h; RPMI, DMEM, PBS at pH 8, 7, 6 and ∼7.6
# Method: To investigate the effect of pH and media on anticancer activity, we further tested the peptides against four cell lines, HL-60, K-562, and MCF-7, and the colon cancer cells HCT-116, cultured in three different media, namely, RPMI, DMEM, and PBS, each adjusted to three different pH values 8, 7, and 6, and additionally one case without pH adjustment (∼7.6) (Figure 6c). To avoid pH changes due to the natural buffering of the CO2-bicarbonate system used in cell culture, the peptides were tested at a concentration of 10 μM for only 1 h, as the cell lysis effect was already apparent within 30 min of exposure (Figure S9d).
# Effects of pH and culture medium on the anticancer activity of peptides against acute myeloid leukemia HL-60, chronic myeloid leukemia K-562, breast adenocarcinoma MCF-7, and colon cancer cells HCT-116 cultured in three different media RPMI (#21875034, Gibco), DMEM (#LM-D1110/500, Biosera), and PBS adjusted to three different pH values 8, 7, and 6, and a medium without pH adjustment (∼7.6), were tested using flow cytometry DiOC6/7AAD (3,3-dihexyloxacarbocyanine iodide/7-amino-actinomycin D) staining assay, as described previously.[102] Media pH was adjusted twice, i.e., 1 day before the experiment and immediately before the experiment. Medium was supplemented with 10% heat-inactivated FBS, glutamine, sodium pyruvate, and antibiotics (100 U/mL penicillin and 100 μg/mL streptomycin). […] To determine cell viability, cells were incubated with DiOC6 (Thermo Fisher Scientific) and 7AAD (Thermo Fisher Scientific) for 15 min at 37 °C and cell viability was measured using a BriCyte E6 flow cytometer (Mindray); viable cells were considered as DiOC6-positive and 7AAD-negative.
# The effect of pH on peptide activity in cancer cells was evaluated by the multiway ANOVA followed by Tukey post hoc test. Regarding the comparison of the effect of the medium, we analyzed the data from Figure 6c by comparing RPMI medium and DMEM of the same pH, and statistical significance was assessed using the multiway ANOVA followed by Tukey post hoc test. […]
# [9] = system: normal B and T lymphocytes, granulocytes, and monocytes in whole blood; experiment: Viability by flow cytometric staining in whole blood; assay type: cell-based, human; conditions: up to the highest tested concentration of 50 μM; 16 h
# Method: Finally, we tested the effect of LP1 and LP40 on healthy primary cells in whole blood from a healthy donor (Figure S11).
# The whole blood was seeded in a 96-well plate at 200 μL/well and treated with peptides for 16 h. The samples were then stained with anti-CD3 (FITC, Sony), anti-CD14 (APC-Cy7, Sony), and anti-CD19 (PE, Beckman Coulter) antibodies and incubated for 20 min at room temperature in the dark. The cells were then incubated with red blood cell lysis buffer for 10 min at room temperature, centrifuged, resuspended in PBS containing SYTOX Blue Dead Cell Stain (Thermo Fisher Scientific) and measured using a FACSVerse flow cytometer (BD Biosciences).
# [10] = single intraperitoneal dose at 10 times the MIC
# Method: Neutropenic mice were infected intramuscularly (in the right thigh) with 10^6 cells per mL of Gram-negative A. baumannii (ATCC 19606).
# (a) Schematic of the deep thigh infection model in which bacteria are injected intramuscularly at day 4 and peptides are administered intraperitoneally also at day 4 to assess their anti-infective activity. Mice were euthanized 4 days postinfection (day 8). Each group consisted of six mice (n = 6), and the bacterial loads used to infect the mice derived from three different inocula. […] Polymyxin B (0.006 mg/kg) and levofloxacin (0.014 mg/kg) were used as the reference antibiotics. Statistical significance was done using one-way ANOVA followed by Dunnett’s test. Violin plots represent the median, upper quartile, and lower quartile. (c) Mouse weight was monitored to exclude possible toxic effects of the peptides.
# Six-week-old female CD-1 mice (obtained from Charles River; stock number 18679700-022) underwent neutropenia induction via two intraperitoneal doses of cyclophosphamide (150 mg kg^–^1) administered with a 72 h interval. One day later, the mice received an intramuscular injection containing A. baumannii ATCC 19606 (10^6 CFU mL^–1) in the right thigh. Bacteria were cultured in LB broth, washed twice with PBS (pH 7.4), and resuspended to the desired concentration. […] Polymyxin B (0.006 mg/kg) and levofloxacin (0.014 mg/kg) were used as the reference antibiotics. Prior to each injection, mice were anesthetized with isoflurane and their respiratory rate and pedal reflexes were monitored. Subsequently, we observed the infection establishment and euthanized the mice. The infected area was excised 4 days postinfection (i.e., 8 days after the beginning of the experiment), homogenized using a bead beater for 20 min (25 Hz), and 10-fold serially diluted for CFU quantification on MacConkey agar plates. Each experimental group comprised three mice. All experiments were conducted blindly, and no animals were excluded from the analysis. Statistical significance was assessed using one-way ANOVA followed by Dunnett’s test on log10-transformed data to mitigate outlier effects; p values are reported for each group, with all groups compared to the untreated control group.
Molecule,Calcein leakage (%) from LUVs at P:L 1:100 (mol/mol) [1],MIC (E. coli (TOP10)),MIC (S. carnosus (CCM 4838T)),IC50 [2],MIC (E. coli (E1098)),IC50 [3],IC50 [4],IC50 [5],IC50 [6],IC50 [7],Activity against cancer cells (cell viability) as a function of pH and medium [8],Effect on healthy primary cells in whole blood [9],Change in mouse weight [10]
KKKKLKKILKKLFQFIQQLDQQLQDIKQQK-NH2 [LP35],63.3 ± 6.7%,0.4 µM,0.4 µM,36 µM,0.5 µM,,,,,,,,
KKKKIKKIIKKIFQFINQIDNQIQDIKQNK-NH2 [LP33],28.3 ± 9.3%,50 µM,> 50 µM,,,> 50 µM,< 2 µM,27 µM,> 128 µM,,,,
"CC[C@H](C)[C@H](NC(=O)CN)C(=O)NCC(=O)N[C@@H](C)C(=O)N[C@H](C(=O)N[C@@H](CC(C)C)C(=O)N[C@@H](CCCCN)C(=O)N[C@H](C(=O)N[C@@H](CC(C)C)C(=O)N[C@H](C(=O)N[C@H](C(=O)NCC(=O)N[C@@H](CC(C)C)C(=O)N1CCC[C@H]1C(=O)N[C@@H](C)C(=O)N[C@@H](CC(C)C)C(=O)N[C@H](C(=O)N[C@@H](CO)C(=O)N[C@@H](Cc1c[nH]c2ccccc12)C(=O)N[C@H](C(=O)N[C@@H](CCCCN)C(=O)N[C@@H](CCCNC(=N)N)C(=O)N[C@@H](CCCCN)C(=O)N[C@@H](CCCNC(=N)N)C(=O)N[C@@H](CCC(N)=O)C(=O)N[C@@H](CCC(N)=O)C(N)=O)[C@@H](C)CC)[C@@H](C)CC)[C@@H](C)O)[C@@H](C)O)C(C)C)C(C)C [Melittin, reference compound]",,,,,,,,,,< 5 µM,did not allow cell growth,,
HHHHLKKILKKLFQFINQLDNQLQDIHHHH [LP40],,,,,,,> 70 µM,> 70 µM,> 70 µM,,,no apparent deleterious effect,no significant change in mouse weight
